The values that follow come from paper PMC8668966, “Short-chain aurachin D derivatives are selective inhibitors of E. coli cytochrome bd-I and bd-II oxidases” (Scientific Reports, 2021).

The target of one test is T1, cytochrome bd-I (Escherichia coli, UniProt P0ABJ9).
T1 construct: made in house; host or cells: E. coli C43 (DE3) Δ bo3 (CLY)
Put plainly: Oxygen reductase activity assay (Clark-type electrode) with purified cytochrome bd-I. The settings on record: for Rest activity in % of control activity bd-I / remaining activity at 250 µM: compound 250 µM, 200 µM ubiquinone-1, 5 mM dithiothreitol, 30 nM enzyme, RT, 100% = DMSO, mean ± S.E.M. (n=3); for remaining activity at 250 µM: read-out: Rest activity in % of control activity bd-I; for Ki: final enzyme concentration 30 nM, inhibitor concentration at 50% residual oxygen reductase activity (EC50 of DoseResp fit), read-out: Ki^app bd-I. In kind it is biochemical, E. coli. From the text:
(§1) To determine inhibition of our test set compounds and to assess the selectivity for bd-type oxidases we tested the inhibitory effect via […] determination of oxygen reduction using purified protein samples and ubiquinol-1 as electron donor. In this set-up, we kept the compound at a high molar excess compared to the protein. Figures 3 and 4 illustrate the screening results for cytochromes bd-I, bd-II and bo3, respectively. A comparative overview of all compounds is given in SI Table S1. […]. […] Among these compounds, AC2-11 has the strongest inhibitory effect on all three oxidases. […]. For AurC and its analogues it was reported that replacement of N–OH with an N–H group decreases the inhibitory potential only for cytochrome bo3, keeping a strong inhibitory effect on cytochrome bd[17]. Correspondingly, we observed a clear inhibition of cytochromes bd-I and bd-II with all AurD-type compounds. Regarding the long-chain derivatives AC4-11, AC2-11 and AD3-11, inhibition of cytochromes bd-I and bd-II and bo3 highlight the importance of the residue at the nitrogen group at position 1 for enzyme selectivity. […]. […] Regarding the cyclic derivatives, 7-MTHA causes only a minor inhibition of cytochrome bd-I. This effect could be due to the methoxy group in position 7 that introduces an additional polarity to the molecule. Steric hindrance as a consequence of the third ring structure is less likely, because AD5-cyclo is bulkier and reduces activity < 10% of cytochromes bd-I and bd-II.
(§2) Oxygen reductase activity was measured as oxygen consumption rate of purified protein by OX-MR Clark-type oxygen electrode linked to a PA 2000 picoammeter and to the ADC-216 AD-converter. Data recording with SensorTrace Basic 2.1 software (all Unisense, Denmark). Measurements were performed at RT in stirred 2 ml—glass vials with a total reaction volume of 600 µl. Oxygen consumption was initiated by adding 30 nM (bd-I, bo3) or 120 nM (bd-II) of the respective enzyme to the equilibrated mixture containing 20 mM NaPi (pH 8.0), 50 mM NaCl, 0.02% DDM, 5 mM Dithiothreitol (DTT) and 200 µM Ubiquinone-1 (2,3-Dimethoxy-5-methyl-6-(3-methyl-2-buten-1-yl)-1,4-benzoquinone). A 10 min equilibration period was implemented prior to enzyme addition. Inhibition experiments were performed with 250 µM of the respective compound from 20 mM stock solution in DMSO before equilibration. Data analysis and visualization via Origin Lab Pro 9.5 (Additive GmbH, Germany) Data analysis included an unpaired, two-sided t-test of two samples to check that given residual activities were sufficiently different between proteins (at significance levels p < 0.05, 0.01 or 0.001). HQNO (2-heptyl-4-quinolinol 1-oxide) was purchased from biomol GmbH, Hamburg. […]. The Ki^app value was adopted as the EC50 from the sigmoidal DoseRespFit. Further information can be found in Supporting Information Figures S2 to S5.
Dose response curves were created to rank the compounds due to their inhibition potency. Inhibitors were titrated in presence of 30nM bd-I. From Clark-type electrode monitored oxygen consumption, resulting oxygen reduction activity with 200µM Q1, reduced with 2mM DTT, was calculated as turnover in e^-/s. Turnover values were normalized, followed by a curve fitting with DoseResp Fit (1) in Origin LabPro9.5 (Additive GmbH, Germany). Data points are mean of minimum three independent measurements ± S.E.M.

Another test has as its target T2, cytochrome bd-II (Escherichia coli, UniProt P26459).
T2 construct: made in house; host or cells: E. coli C43 (DE3) Δ bo3 (CLY)
Put plainly: Oxygen reductase activity assay (Clark-type electrode) with purified cytochrome bd-II. The format is biochemical, E. coli. The settings on record: compound 250 µM, 200 µM ubiquinone-1, 5 mM dithiothreitol, 120 nM enzyme, RT, 100% = DMSO, mean ± S.E.M. (n=3); for remaining activity at 250 µM: read-out: Rest activity in % of control activity bd-II.
Text: as §1, §2

In test [1] the target is T3, cytochrome bo3 (Escherichia coli, UniProt P0ABI8).
T3 construct: made in house; host or cells: E. coli strain GO195 with pIRHisA
Put plainly: Oxygen reductase activity assay (Clark-type electrode) with purified cytochrome bo3. In kind it is biochemical, E. coli. The settings on record: for Rest activity in % of control activity bo3 / remaining activity at 250 µM: compound 250 µM, 200 µM ubiquinone-1, 5 mM dithiothreitol, 30 nM enzyme, RT, 100% = DMSO, mean ± S.E.M. (n=3); for remaining activity at 250 µM: read-out: Rest activity in % of control activity bo3; for Ki: final enzyme concentration 30 nM, EC50 of DoseResp fit, read-out: Ki^app bo3.
Text: as §1, §2

Test [2] deals with T3, cytochrome bo3. The following applies: values in brackets, determined spectrophotometrically; read-out: Ki^app bo3 (previous data) (converted); cited from earlier work.
The target in the next test is cytochrome bd. Also noted: method as in PMID 9880809. The settings on record: values in brackets, determined spectrophotometrically; read-out: Ki^app bd-I (previous data) (converted); cited from earlier work.
The subject of test [3] is cytochrome bc1 complex (complex III) from beef heart mitochondria. Further details: method as in PMID 8206232. The following applies: isolated complex III; cited from earlier work.
In a further test the test system is B. subtilis. Also noted: method as in PMID 3106289. The following applies: cited from earlier work.
Test [4] deals with multidrug efflux transporter deficient TolC strain of Escherichia coli. The settings on record: cited from earlier work.
In test [5] the test system is human U-2 OS osteosarcoma cells. Also noted: method as in PMID 23946854. The following applies: upon treatment; cited from earlier work.

Values after ≈ are worked out from the molar mass of the structure shown. Read-outs that look alike come from different tables or passages of the source.

T1 sequence (P0ABJ9 whole entry): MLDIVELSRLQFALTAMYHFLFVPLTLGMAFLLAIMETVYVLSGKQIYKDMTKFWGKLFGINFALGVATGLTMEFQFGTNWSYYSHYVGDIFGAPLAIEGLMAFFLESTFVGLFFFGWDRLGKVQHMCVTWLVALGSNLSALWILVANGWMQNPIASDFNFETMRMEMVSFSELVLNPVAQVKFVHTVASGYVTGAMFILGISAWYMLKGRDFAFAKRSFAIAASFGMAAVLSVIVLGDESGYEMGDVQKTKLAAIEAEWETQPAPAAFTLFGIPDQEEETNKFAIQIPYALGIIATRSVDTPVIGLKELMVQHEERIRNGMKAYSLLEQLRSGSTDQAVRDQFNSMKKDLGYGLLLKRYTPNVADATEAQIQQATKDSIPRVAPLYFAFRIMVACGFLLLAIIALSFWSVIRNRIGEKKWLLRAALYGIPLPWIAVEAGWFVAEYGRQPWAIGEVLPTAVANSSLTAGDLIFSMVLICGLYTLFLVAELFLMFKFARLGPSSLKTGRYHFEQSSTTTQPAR
T1 sequence (P0ABK2 whole entry, further chain): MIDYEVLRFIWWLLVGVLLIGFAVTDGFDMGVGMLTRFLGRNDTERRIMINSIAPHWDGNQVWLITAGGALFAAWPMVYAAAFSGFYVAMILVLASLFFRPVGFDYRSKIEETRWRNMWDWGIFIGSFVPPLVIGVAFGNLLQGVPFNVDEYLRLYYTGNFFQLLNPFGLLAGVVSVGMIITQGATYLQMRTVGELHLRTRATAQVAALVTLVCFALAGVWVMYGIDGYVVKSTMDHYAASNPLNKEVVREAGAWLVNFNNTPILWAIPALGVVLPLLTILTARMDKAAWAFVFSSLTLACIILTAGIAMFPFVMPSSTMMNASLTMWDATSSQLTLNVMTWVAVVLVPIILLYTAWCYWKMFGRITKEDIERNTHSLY
T1 sequence (P56100 whole entry, further chain): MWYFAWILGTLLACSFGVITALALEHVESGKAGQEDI
T2 sequence (P26459 whole entry): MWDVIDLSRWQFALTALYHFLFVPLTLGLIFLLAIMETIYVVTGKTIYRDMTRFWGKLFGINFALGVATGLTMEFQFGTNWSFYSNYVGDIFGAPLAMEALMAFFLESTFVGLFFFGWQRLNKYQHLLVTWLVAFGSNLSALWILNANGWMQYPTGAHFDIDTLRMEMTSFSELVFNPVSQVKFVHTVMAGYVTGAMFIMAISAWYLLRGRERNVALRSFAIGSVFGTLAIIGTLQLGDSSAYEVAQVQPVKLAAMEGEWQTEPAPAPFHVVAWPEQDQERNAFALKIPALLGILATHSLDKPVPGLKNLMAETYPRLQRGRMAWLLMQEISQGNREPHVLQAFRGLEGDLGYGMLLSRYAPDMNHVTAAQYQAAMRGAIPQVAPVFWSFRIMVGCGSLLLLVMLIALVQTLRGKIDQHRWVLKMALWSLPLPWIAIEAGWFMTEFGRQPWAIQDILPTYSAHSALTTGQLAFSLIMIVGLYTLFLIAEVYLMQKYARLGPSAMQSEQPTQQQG
T2 sequence (P24244 whole entry, further chain): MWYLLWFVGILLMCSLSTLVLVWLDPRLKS
T2 sequence (P26458 whole entry, further chain): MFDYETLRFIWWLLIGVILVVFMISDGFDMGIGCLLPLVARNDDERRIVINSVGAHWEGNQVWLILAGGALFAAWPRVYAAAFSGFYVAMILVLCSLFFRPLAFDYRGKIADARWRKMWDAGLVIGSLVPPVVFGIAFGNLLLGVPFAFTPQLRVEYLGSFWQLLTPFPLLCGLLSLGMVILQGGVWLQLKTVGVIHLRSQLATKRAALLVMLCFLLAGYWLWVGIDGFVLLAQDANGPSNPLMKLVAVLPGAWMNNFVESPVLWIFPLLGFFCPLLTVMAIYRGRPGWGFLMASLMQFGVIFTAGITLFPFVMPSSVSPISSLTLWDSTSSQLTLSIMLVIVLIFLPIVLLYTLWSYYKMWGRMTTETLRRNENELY
T3 sequence (P0ABJ3 whole entry): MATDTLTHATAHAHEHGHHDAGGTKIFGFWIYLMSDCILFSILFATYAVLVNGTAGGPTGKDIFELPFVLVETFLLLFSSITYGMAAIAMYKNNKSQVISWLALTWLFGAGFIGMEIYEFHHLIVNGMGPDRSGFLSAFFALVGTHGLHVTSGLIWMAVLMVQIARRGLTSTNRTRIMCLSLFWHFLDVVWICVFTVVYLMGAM
T3 sequence (P0ABJ1 25-315, further chain): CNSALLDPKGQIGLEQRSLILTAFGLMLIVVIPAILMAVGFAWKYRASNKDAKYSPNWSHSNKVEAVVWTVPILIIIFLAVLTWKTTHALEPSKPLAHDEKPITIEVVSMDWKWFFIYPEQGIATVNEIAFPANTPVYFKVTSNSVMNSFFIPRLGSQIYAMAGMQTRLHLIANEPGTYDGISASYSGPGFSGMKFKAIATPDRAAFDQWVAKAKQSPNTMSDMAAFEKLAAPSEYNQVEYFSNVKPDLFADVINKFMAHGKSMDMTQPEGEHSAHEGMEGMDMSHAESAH
T3 sequence (P0ABJ6 whole entry, further chain): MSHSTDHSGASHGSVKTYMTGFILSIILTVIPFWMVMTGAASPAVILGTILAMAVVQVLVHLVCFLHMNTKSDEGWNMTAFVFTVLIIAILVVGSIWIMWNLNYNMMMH
T3 sequence (P0ABI8 whole entry): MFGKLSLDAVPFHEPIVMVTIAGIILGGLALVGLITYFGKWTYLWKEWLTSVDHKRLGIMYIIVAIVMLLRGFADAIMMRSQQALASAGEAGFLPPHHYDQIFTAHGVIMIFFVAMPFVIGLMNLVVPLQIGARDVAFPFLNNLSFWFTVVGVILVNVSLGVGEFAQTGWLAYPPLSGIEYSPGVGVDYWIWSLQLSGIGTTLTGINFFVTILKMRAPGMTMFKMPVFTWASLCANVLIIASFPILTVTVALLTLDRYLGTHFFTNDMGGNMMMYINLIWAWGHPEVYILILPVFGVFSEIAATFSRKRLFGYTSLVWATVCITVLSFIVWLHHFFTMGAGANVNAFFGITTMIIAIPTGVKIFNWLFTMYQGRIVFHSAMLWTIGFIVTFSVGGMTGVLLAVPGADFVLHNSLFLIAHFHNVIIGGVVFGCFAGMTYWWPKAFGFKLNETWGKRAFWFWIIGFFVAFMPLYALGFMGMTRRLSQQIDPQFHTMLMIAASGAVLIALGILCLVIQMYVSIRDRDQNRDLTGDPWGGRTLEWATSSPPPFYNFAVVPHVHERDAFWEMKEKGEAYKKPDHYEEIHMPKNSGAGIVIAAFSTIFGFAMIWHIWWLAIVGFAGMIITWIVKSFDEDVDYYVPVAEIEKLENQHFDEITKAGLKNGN

Turning to “2-(2-Heptyl)-3-methyl-4(1H)-quinolone [AD7-1]”, the “Rest activity in % of control activity bd-I” value is 4.90 ± 1.5% at cytochrome bd-I and 3.46 ± 0.17% at cytochrome bd-I (listed as AD7-1*). Moreover, the “Rest activity in % of control activity bd-II” value is given as 1.18 ± 0.12% on cytochrome bd-II and 1.71 ± 0.48% at cytochrome bd-II (listed as AD7-1*). Moreover, the “Rest activity in % of control activity bo3” value on cytochrome bo3 [1] amounted to 63.6 ± 1.3%; on cytochrome bo3 [1] (listed as AD7-1*) it was 47.0 ± 1.9%.

Take `CCCCCCCCCCc1c(C)c(=O)c2ccccc2n1O` [AC1-10]: the Ki is 13 nM on cytochrome bo3 [2], 82 ± 11 nM on cytochrome bd-I and 280 nM on cytochrome bd. For the same compound, the remaining activity at 250 µM was determined as 1.39 ± 0.19% at cytochrome bd-I and 0.626 ± 0.08% at cytochrome bo3 [1].

On to `CCCCCCCCCCCc1c(CC)c(=O)c2ccccc2n1O` [AC2-11], for which the Ki is 46 nM at cytochrome bo3 [2], 34 ± 6 nM at cytochrome bd-I, 31 ± 6 nM on cytochrome bo3 [1] and 440 nM at cytochrome bd. The remaining activity at 250 µM at cytochrome bd-I was 1.09 ± 0.09%; at cytochrome bd-II, 0.73 ± 0.21%; on cytochrome bo3 [1] it was 0.445 ± 0.08%.

As to `CCCCCCCCCCCc1c(CCCC)c(=O)c2ccccc2n1O` [AC4-11], the Ki was 144 nM on cytochrome bo3 [2], 106 ± 13 nM on cytochrome bd-I and 340 nM at cytochrome bd. Moreover, the remaining activity at 250 µM at cytochrome bd-I was 1.19 ± 0.42%; on cytochrome bd-II it was 2.14 ± 0.35%; at cytochrome bo3 [1], 0.863 ± 0.29%.

Consider `CCCCCCCCCCCc1cc(=O)c2ccccc2[nH]1` [AD0-11], for which the remaining activity at 250 µM at cytochrome bd-I is > 30%; at cytochrome bd-II, 8.4 ± 0.36%; at cytochrome bo3 [1], 23%. Moreover, at cytochrome bo3 [1], the “Rest activity in % of control activity bo3” value is 23.3 ± 2.3%.

`CCCCCCCCCCCc1[nH]c2ccccc2c(=O)c1CCC` [AD3-11]: the remaining activity at 250 µM was determined as 0.453 ± 0.28% on cytochrome bd-I, 1.45 ± 0.18% on cytochrome bd-II and 47.1 ± 7% on cytochrome bo3 [1]. At cytochrome bd-I (cytochrome bd-I), the “fold higher inhibitory potential compared to AD0-11” value stood at 188 fold. Besides, on cytochrome bd-I (selectivity bd-I over bo3), the “ratio Ki^app-bo3 vs. Ki^app-bd-I” value was “around 300”. Besides, the inhibition at 250 µM on cytochrome bo3 [1] (at 250 µM, read-out: inhibitory effect on cytochrome bo3) is ~50%. Moreover, the Ki at cytochrome bo3 [1] was > 100000 nM.

Take `CCCCc1c(C)[nH]c2ccccc2c1=O` [AD4-1]: the remaining activity at 250 µM amounted to 5.8 ± 0.39% on cytochrome bd-I, 1.33 ± 0.26% at cytochrome bd-II and 69.7 ± 4.3% at cytochrome bo3 [1].

As to `CCCCCc1c(C)[nH]c2ccccc2c1=O` [AD5-1], the remaining activity at 250 µM was determined as 4 ± 0.13% on cytochrome bd-I, 1.85 ± 0.18% on cytochrome bd-II and 70.4 ± 1.5% on cytochrome bo3 [1].

Take `O=c1c2c([nH]c3ccccc13)CCCCC2` [AD5-cyclo]: at cytochrome bd-I, the “Rest activity in % of control activity bd-I” value worked out at 5.67 ± 1.14%. Further, the values for the remaining activity at 250 µM at cytochrome bd-I and at cytochrome bo3 [1] were < 10% and 70.5 ± 2.6%, respectively. The “Rest activity in % of control activity bd-II” value on cytochrome bd-II amounted to 1.51 ± 0.15%.

As to `CCCCCCc1c(C)[nH]c2ccccc2c1=O` [AD6-1], the remaining activity at 250 µM amounted to 3.45 ± 0.19% on cytochrome bd-I, 1.3 ± 0.17% on cytochrome bd-II and 73.2 ± 1.7% at cytochrome bo3 [1].

Regarding `CCCCCCCc1c(CC)[nH]c2ccccc2c1=O` [AD7-2], the remaining activity at 250 µM at cytochrome bd-I was found to be 1.89 ± 1.8%; at cytochrome bd-II, 1.4 ± 0.49%; at cytochrome bo3 [1], 33.3 ± 1.4%. Besides, the “Ki^app fold lower compared to AD4-1” value at cytochrome bd-I (cytochrome bd-I) worked out at 45 fold.

`CCCCCCCCc1c(C)[nH]c2ccccc2c1=O` [AD8-1]: the remaining activity at 250 µM on cytochrome bd-I was found to be 3.59 ± 0.11%; at cytochrome bd-II, 1.36 ± 0.21%; on cytochrome bo3 [1], 94.6 ± 3.6%. For the same compound, the “increase of Ki^app value compared to AD7-2” value on cytochrome bd-I (cytochrome bd-I) is on record as “sixfold”.

As for `CCCCCCCCCCCc1cc(=O)c2ccccc2[nH]1` [AD11-0, 2-undecylquinolone], the pIC50 in test [3] is 6.66.

In the case of `CC(C)=CCC/C(C)=C/CC/C(C)=C/Cc1c(C)n(O)c2ccccc2c1=O` [AurC, Aurachin C], in the test on B. subtilis, the minimum inhibitory concentration was 0.15 µg/mL (≈ 0.395 µM).

With `CC(C)=CCC/C(C)=C/CC/C(C)=C/Cc1c(C)[nH]c2ccccc2c1=O` [AurD, Aurachin D], in the test with B. subtilis, the minimum inhibitory concentration is 0.15 µg/mL (≈ 0.413 µM). The figures for the remaining activity at 250 µM on cytochrome bd-I, at cytochrome bd-II and on cytochrome bo3 [1] were 3.93 ± 0.64%, 1.62 ± 0.19% and 30%, respectively. For the same compound, the antibacterial effect entry in test [4] is reported as “moderate antibacterial effect”. Also, the “Rest activity in % of control activity bo3” value on cytochrome bo3 [1] turned out to be 29.9 ± 2.4%. Also, the Ki at cytochrome bo3 [1] is > 10000 nM. Also, in test [5], the “mitochondrial membrane potential reduced to” value is given as 50–80%.

`Cc1cc(O)c2ccccc2n1` [Compound 2-MQ, 2-methyl-4-quinolinol, reference compound]: the remaining activity at 250 µM at cytochrome bd-I is > 30%; on cytochrome bd-II, 17.8 ± 0.55%; at cytochrome bo3 [1], 64.2 ± 2.6%.

In the case of `COc1ccc2[nH]c3c(c(=O)c2c1)CCCC3` [Compound 7-MTHA, 7-methoxy-1,3,4,10-tetrahydro-9(2H)-acridinone, reference compound], the remaining activity at 250 µM on cytochrome bd-I amounted to 35.7 ± 5.7%; at cytochrome bd-II, 9.6 ± 0.16%; at cytochrome bo3 [1], 69.3 ± 1.7%.

For the compound `CCCCCCCc1cc(O)c2ccccc2[n+]1[O-]` [HQNO, 2-heptyl-4-quinolinol 1-oxide, reference compound], the remaining activity at 250 µM came to 7.29 ± 0.45% at cytochrome bd-I, 6.44 ± 1.3% at cytochrome bd-II and 4.53 ± 0.58% on cytochrome bo3 [1]. Also, the Ki amounted to 3600 ± 500 nM on cytochrome bd-I and 2600 ± 400 nM at cytochrome bo3 [1].

Broadly, the pIC50 is the IC50 on a negative log10 scale, so that one unit is a factor of ten.
